Results: article PMC5944028, “Nonclinical and clinical pharmacological characterization of the potent and selective cathepsin K inhibitor MIV-711” (Journal of Translational Medicine, 2018)

How the values were obtained:
urine CTX-I = assay: Monkey urine CTX-I, multiple doses; type: in vivo, cynomolgus monkeys (Macaca fascicularis)
Procedure: Biomarkers such as NTX-I (bone resorption) and CTX-II (cartilage degradation) are typically measured in urine. Additional experiments in which urine was collected were therefore performed. In these experiments, four cynomolgus monkeys (Macaca fascicularis) were used (Aptuit, Edinburgh, UK). The animals were healthy young females weighing 3.5–4 kg. Animals were dosed with vehicle or MIV-711 via oral gavage at a dose volume of 5 mL/kg between 7:30 and 8:30 a.m. Animals first received vehicle via oral gavage for five consecutive days. After a washout period, the animals then received MIV-711 (30 µmol/kg) via oral gavage for five consecutive days.
Urine was collected between 8–12 a.m., 12 a.m.–4 p.m. and 4 p.m.–8 a.m. on Day 1 and Day 5 of respective treatment. Biomarkers were measured in each urine sample, corrected for creatinine, and the mean value of the three samples on Day 1 and Day 5 was calculated. The effect of MIV-711 was evaluated by comparing biomarkers in urine samples collected on Day 1 and Day 5 with respective vehicle sample. [drawing 3]
The quantification of CTX-I in monkey plasma samples and human serum samples was performed using a commercially available kit (Serum CrossLaps ELISA, IDS Nordic, Herlev, Denmark). The levels of CTX-I in monkey urine samples were measured using a commercially available kit (Urine BETA CrossLaps ELISA, IDS Nordic). […]

[1] = Human safety and tolerability, single ascending dose study; type: in vivo, human healthy subjects
Source text: Twenty-seven healthy male and female subjects (18 male and 9 female) of any ethnic origin (24 White, 1 Asian, 1 Black, 1 Black/Caribbean White), aged between 19 and 64 years, and with a body mass index (BMI) between 18.0 and 32.0 kg/m^2, were selected for this study. Inclusion criteria for enrollment followed the standard practice for first-in-man studies.
This was a randomized, double-blind, placebo-controlled, sequential, single-ascending dose study conducted at a single site with the objective of evaluating the safety, tolerability, pharmacokinetics (PK) and pharmacodynamics of MIV-711. Subjects were randomized into 3 groups using a computer-generated pseudo-random permutation procedure. Each group consisted of 9 subjects with at least 3 subjects of each gender per group and subjects participated in 1–2 treatment periods. There was a minimum of 10 days between dose escalations and a minimum of 20 days between dosing occasions for individual subjects. For each subsequent dosing occasion, the decision to escalate the dose to the next level was taken after a thorough review of the safety, tolerability and PK data. In each treatment period, 7 subjects received MIV-711 and 2 received placebo (comprising of 1 subject of each gender). Dosing occurred on the morning of Day 1 following an overnight fast and subjects were kept in the fasted state until approximately 4.5 h after dosing. MIV-711 was given as a combination of 10 or 40 mg hard gelatin capsules, while placebo was given in similar capsules of identical appearance.
Standard safety assessments were performed throughout the study and included physical examination, vital signs, 12-lead electrocardiogram (ECG), continuous ECG Holter monitoring, hematology, biochemistry, urinalysis and adverse event monitoring.
In the nonclinical studies, two-way ANOVA was used to assess the effects of MIV-711 on plasma CTX-I. Pearson’s correlation was used when comparing plasma exposure of MIV-711 with inhibitory effects on CTX-I. Student’s unpaired t test was used when assessing the effect of MIV-711 on urine biomarkers. In the clinical study, PK parameters were summarized by dose level using descriptive statistics. The dose proportionality for AUC and Cmax was assessed by using a power model with determination of the linear regression slope with a 95% confidence interval. Change in CTX-I from baseline at 24 h after dose was calculated by dose level and summarized using descriptive statistics. In addition, the 95% confidence interval for the difference between each MIV-711 group and the placebo group for these variables was calculated by dose level. Pearson’s correlation was used when comparing plasma exposure of MIV-711 with inhibitory effects on CTX-I. A time-matched and placebo-corrected approach was used to evaluate the effects of MIV-711 on the QTcF interval from the Holter ECG recordings. The change-from-baseline QTcF at post-dose time points was analyzed using an ANCOVA model including the treatment, time (categorical), and treatment-by-time interaction as fixed effects, baseline QTcF as a covariate, and subject as random effect. A p value < 0.05 was considered statistically significant. Data are expressed as mean ± SEM.

[2] = tested on: differentiated human osteoclasts; parameters: method as in PMID 20097319; conditions: bovine bone slices; read-out: IC50 in bone resorption assay; cited from earlier work
[3] = single ascending doses 20–600 mg

In the case of `C#C[C@@H]1CN(C(=O)[C@H](CC(C)C)NC(=O)c2ccc(-c3nc(N4CCN(C)CC4)sc3F)cc2)[C@@H]2C(=O)CO[C@H]12` [MIV-711], the “Reduction of urinary CTX-I compared to vehicle” value (urine CTX-I; 30 µmol/kg p.o. once daily for 5 days, creatinine-corrected) is reported as 93%, the “Effect on urinary CTX-I compared to vehicle” value (urine CTX-I; single dose 30 µmol/kg p.o. (Day 1)) is reported as “immediately reduced” and the “Adverse events considered possibly related to treatment” value ([1]; 6/35, all mild) is reported as 17%. For the same compound, the “Subjects reporting adverse events” value ([1]; 11/35 MIV-711-treated subjects) was 31%, the “Upper confidence interval of the projected QTcF effect at the highest observed plasma levels” value ([1]; maximum dose of 600 mg) was “below 10 ms” and the Safety and tolerability [1, 3] was “safe and well-tolerated”. For the same compound, the Serious adverse events [1, 3] was “no serious adverse events” and the IC50 [2] was 37 nM.
